The source of these data is patent US8609725B2, “Method of using beta-hydroxy-beta-methylbutyrate for reducing tumor growth rate” (Abbott Laboratories, priority 2004, dated 2013).

In one experiment the test system is proteasome. Nature of the experiment: Functional proteasome 'chymotrypsin-like' enzyme activity in gastrocnemius muscle of MAC16 mice. It is filed as in vivo, NMRI mice. Particulars: HMB 0.25 g/kg, EPA 0.6 g/kg or combination, 3 days. Here is the method:
Functional proteasome activity was determined by measuring the ‘chymotrypsin-like’ enzyme activity, the predominant proteolytic activity of the β-subunits of the proteasome according to the method of Orino, E. et al. ATP-dependent reversible association of proteasomes with multiple protein components to form 26S complexes that degrade ubiquitinated proteins in human HL-60 cells. FEBS Lett., 284: 206-210, 1991. Muscles were rinsed with ice-cold PBS, minced and sonicated in 20 mM Tris. HCl, pH 7.5, 2 mM ATP, 5 mM MgCl2 and 1 mM DTT. The sonicate was then centrifuged for 10 min at 18,000 g, at 4° C. and the supernatant was used to determine ‘chymotrypsin-like’ enzyme activity by the release of aminomethyl coumarin (AMC) from the fluorogenic substrate succinyl-LLVY-AMC. Activity was measured in the absence and presence of the specific proteasome inhibitor lactacystin (10 μM). Only lactacystin suppressible activity was considered to be proteasome specific.

The next experiment addresses T1, PKCα (Mus musculus, UniProt P20444).
T1 construct: PIF stimulates translocation of PKCα from the cytoplasm to the plasma membrane; endogenous in cells; host or cells: murine myotubes (C2C12)
Description: PIF-stimulated translocation of PKCα from cytoplasm to plasma membrane in murine myotubes. It is filed as cell-based. Here is the method: (§1) For Western blot analysis, cytosolic protein (2 to 5 μg) obtained for the above assay were resolved on 10% SDS-PAGE and transferred to 0.45 μm nitrocellulose membrane, which had been blocked with 5% Marvel in PBS, at 4° C. overnight. The primary antibodies were used at a dilution of 1:100 (anti-actin and PKCα); 1:500 (anti-ERK1 and 2); 1:1000 (anti-20S proteasome β-subunit and I-κBα); 1:1500 (anti-20S proteasome α-subunit) or 1:5000 (anti-p42), while the secondary antibodies were used at a dilution of 1:2000. Incubation was carried out for 2 h at room temperature and development was by ECL. Loading was quantitated by actin concentration.
(§2) The in vitro study described in Example III above also evaluated the effect of HMB on molecules that are key mediators in the pathway of inflammation. This experiment was conducted as described in Example III.

Experiment [1] relates to soleus muscle of mice bearing the MAC16 tumor. Description: Soleus muscle weight and protein degradation (tyrosine release) in MAC16 mice. It is filed as in vivo, NMRI mice. Particulars: EPA 0.6 g/kg, HMB 0.25 g/kg or the combination for 3 days. The source says: Pure strain male NMRI mice (average weight 25 g) were obtained from our own inbred colony and were transplanted with fragments of the MAC16 tumor s.c. into the flank by means of a trochar, selecting from donor animals with established weight loss as described in Bibby, M. C. et al. Characterization of a transplantable adenocarcinoma of the mouse colon producing cachexia in recipient animals. J. Natl. Cancer Inst., 78: 539-546, 1987. Transplanted animals were fed a rat and mouse breeding diet (Special Diet Services, Witham, United Kingdom) and water ad libitum, and weight loss was evident 10-12 days after tumor implantation. Animals just prior to the development of weight loss were randomized to receive daily either EPA (in olive oil), HMB (in PBS) or the combination as described in the figure legends administered p.o. by gavage, while control animals received either olive oil or PBS. EPA (98% as free acid) was purchased from Biomol Research Laboratories Inc., PA, USA. HMB (as the calcium salt) was obtained from Abbott Laboratories, Columbus, Ohio, USA. All groups contained a minimum of 6 mice. Tumor volume, body weight and food and water intake were monitored daily. […] Protein degradation was determined by the release of tyrosine over a 2 h period as described in […]. et al. A fluorimetric method for the estimation of tyrosine in plasma and tissues. […]

The next experiment deals with I-κBα. Nature of the experiment: PIF-induced degradation of I-κBα in murine myotubes. It is filed as cell-based. Particulars: 50 μM HMB. The procedure:
as §1, with “concentration. The in vitro study described in Example III above also evaluated the effect of HMB on molecules that are key mediators in the pathway of inflammation. This experiment was conducted as described in Example III.” for “concentration.”

The subject of the next experiment is p42/44 MAPK (ERK1, ERK2). Description: PIF-induced phosphorylation of ERK 1/2 (p42/44 MAPK) in murine myotubes. It is filed as cell-based. The procedure: as §1, §2
Experiment [2] deals with gastrocnemius muscle of mice bearing the MAC16 tumor. Nature of the experiment: Protein synthesis and degradation in gastrocnemius muscle of MAC16 mice. Type of experiment: in vivo. Here is the method:
Protein synthesis was measured by the incorporation of L-[4-3H]phenylalanine during a 2-hour period in which isolated gastrocnemius muscles were incubated at 37° C. in RPMI 1640 without phenol red and saturated with O2/CO2 (19:1). After incubation muscles were rinsed in nonradioactive medium, blotted dry, and homogenized in 4 mL 2% perchloric acid. The rate of protein synthesis was calculated by dividing the protein-bound radioactivity by the acid-soluble (unbound) material. For protein degradation assays animals from the same group as used to measure protein synthesis were given i.p. 0.4 mmol/L L-[4-3H]phenylalanine in PBS (100 μl) 24 hours prior to the assay. Isolated gastrocnemius muscles were extensively washed with PBS and RPMI 1640 before measuring the release of radioactivity into RPMI 1640 over a 2-hour period. The protein-bound activity was determined by homogenizing the muscles in 2% perchloric acid and determining the non-acid-soluble radioactivity (radioactivity in the precipitate). The rate of protein degradation was calculated by dividing the amount of [^3H]phenylalanine radioactivity released into the incubation medium during the 2-hour incubation period by the specific activity of protein-bound [^3H] phenylalanine.

In the next experiment the test system is rats and chicks. As to conditions: cited from earlier work.
Setting [3] is: HMB 0.25 and 2.5 g/kg daily p.o., 3 days, vs PBS control.
Setting [4] is: avg., 1996 abstract, normal rats and chicks.

As for `CC(C)(O)CC(=O)O` [HMB, beta-hydroxy-beta-methylbutyric acid], the “functional proteasome activity ('chymotrypsin-like' enzyme activity)” value in the experiment on proteasome was “attenuated”. The “attenuation of PIF-stimulated translocation of PKCα” value was “less effective” on PKCα (25 μM HMB) and “effectively attenuated” at PKCα (50 μM). Also, the “tyrosine release (total protein degradation in soleus muscle)” value in experiment [1] is given as “as effective as EPA”. Moreover, the “attenuation of I-κBα degradation in the presence of PIF” value with I-κBα was “effectively attenuate”. Besides, the “attenuation of PIF-induced phosphorylation of p42/44” value in the experiment on p42/44 MAPK (ERK1, ERK2) (25 μM HMB) is “not HMB at 25 μM”; in the experiment on p42/44 MAPK (ERK1, ERK2) (50 μM), “completely attenuated”. The “protein degradation in gastrocnemius muscle” value in experiment [2] (setting [3]) is recorded as “attenuated”. Also, in experiment [2] (setting [3]), the “protein synthesis in gastrocnemius muscle” value is “significantly increased”. The results for the “increase in the ratio of protein synthesis to protein degradation in muscle” value in experiment [2] (HMB 0.25 g/kg) and in experiment [2] (HMB 2.5 g/kg) were 14 fold and 32 fold, respectively. Besides, the “change of protein breakdown” value in the experiment on rats and chicks (setting [4]) is given as −18%. Moreover, in the experiment on rats and chicks (setting [4]), the “stimulation of protein synthesis” value was 6%. The “effect on protein synthesis” value with rats and chicks (later paper (2000), same model in rats and chicks) is listed as “no significant effect”.
